Results: article PMC6478823, “A suite of phenotypic assays to ensure pipeline diversity when prioritizing drug-like Cryptosporidium growth inhibitors” (Nature Communications, 2019)
Several values for one entry are separate records, joined by “and”; a condition that tells them apart may be missing. Equal entries are not always repeated.

Tests used:
C. parvum [1] = experiment: 48 h Cryptosporidium growth inhibition assay; type: cell-based, Cryptosporidium parvum; conditions: for 0 - 48 h V. villosa lectin (asexual): Mean % Inhibition (parasites): replicates 1-2; for EC90: read-out: Regular 3 to 48 h assay in vitro EC90, C. parvum in HCT-8 cells, compound added 3 h post-infection, read at 48 h
Text: As a first step in developing specific Cryptosporidium mode of action assays, we conducted a series of light microscopy time-lapse and transmission electron microscopy (TEM) time course experiments in order to precisely define C. parvum development within the HCT-8 cell culture system. […] This synchronicity was exploited by modifying a previously developed high-content microscopy assay. These assay modifications enabled the evaluation of several key events within the life cycle: host cell invasion, intracellular replication, host cell egress and establishment of new parasitophorous vacuoles, and sexual differentiation. […] Since the methods all used automated liquid handling, imaging, and image analysis, the assay methods all incorporated nuclear staining to monitor host cell numbers and enable recognition of HCT-8 cell monolayer damage, for example as an artifact from a malfunctioning plate washer or from unanticipated cytotoxicity of the compounds.
Human ileocecal adenocarcinoma (HCT-8) cells were purchased from ATCC (catalog# CCL-244) and cultured in ATCC modified RPMI-1640 medium (Gibco, catalog# A10491–01), supplemented with 10% heat-inactivated fetal bovine serum (Sigma-Aldrich, catalog# 12306C) and 120 U/mL penicillin and 120 μg/mL streptomycin (Gibco, catalog# 15140-122) (culture media). […] For all experiments, HCT-8 cells between passages 9 and 39 were used. C. parvum (Iowa isolate) oocysts were purchased from Bunchgrass Farm (Deary, ID), stored at 4 °C and used within 5 months of collection from an infected calf. To induce excystation, oocysts were first treated with 10 mM hydrochloric acid for 10 min at 37 °C, spun at 14,000×g for 4.5 min at room temperature, treated with 2 mM sodium taurocholate for 10 min at 16 °C, spun as before, and resuspended in culture media for infection.
A modification of a previously reported immunofluorescence assay was used to determine the EC50 and EC90 of compounds[13]. HCT-8 cells were grown to ≥ 90% confluence in 384-well plates (Corning, catalog# 353962) and infected with 5500 oocysts per well after they were induced for excystation as described above. Different concentrations of compounds were added 3 h post-infection and plates were incubated for another 45 h in a 5% CO2 incubator at 37 °C. Wells were then washed 3 times with PBS containing 111 mM D-galactose (PBS-D-gal), fixed with 4% paraformaldehyde (PFA) in PBS for 15 min at room temperature, permeabilized with 0.25% Triton X-100 for 10 min at 37 °C, washed 3 times with PBS with 0.1% Tween 20, and blocked with 4% bovine serum albumin (BSA) in PBS for 2 h at 37 °C or 4 °C overnight. Parasitophorous vacuoles were stained with 1.33 µg/mL of fluorescein-labeled Vicia villosa lectin (Vector Laboratories, catalog# FL-1231) diluted in 1% BSA in PBS with 0.1% Tween 20 for 1 h at 37 °C, followed by addition of Hoechst 33258 (AnaSpec, catalog# AS-83219) at 0.09 mM diluted in water for another 15 min at 37 °C. Wells were then washed 5 times with PBS containing 0.1% Tween 20. A Nikon Eclipse Ti2000 epifluorescence microscope with an automated stage was programmed using NIS-Elements Advanced Research software (Nikon, USA) to focus on the center of each well and take a 3 × 3 or 6 × 6 composite image using an EXi blue fluorescence microscopy camera (QImaging, Canada) with a 20 × objective (NA = 0.45). Nuclei and parasite images were separately exported as.tif files and analyzed using macros developed on the ImageJ platform (National Institutes of Health)[13].

C. parvum [2] = type: cell-based, Cryptosporidium parvum; conditions: compound at EC90; for Invasion Assay: Mean % Inhibition (parasites), Average: average of replicates; for Invasion Assay: Mean % Inhibition (parasites), Replicate 1a: single biological replicate 1; for Invasion Assay: Mean % Inhibition (parasites), Replicate 2a: single biological replicate 2; for Invasion Assay: Mean % Inhibition (parasites), Replicate 3a: single biological replicate 3; for Sporozoite invasion: yes/no grouping by phenotypic assay result
Procedure: The first step in infection is host cell invasion, which involves a complex process encompassing oocyst excystation, parasite motility, adhesion, and parasitophorous vacuole formation (Fig. 2a). Our strategy to assay for compounds affecting invasion was simply to expose C. parvum to compounds immediately after triggering excystation and throughout the invasion process, and then enumerate the parasite vacuoles after 3 h, prior to allowing the parasites to replicate (summarized in Fig. 2b).
Fig. 2 Invasion Assay. a Overview of life cycle stage investigated during the invasion assay. Representative TEM images of a C. parvum oocyst and HCT-8 cell shortly after infection (Scale bar = 500 nm). b Schematic of experimental design. […] Each point represents the mean and SD of at least two biological replicates with four technical replicates per experiment.
C. parvum invasion inhibition was measured by modifying the 48 h growth inhibition assay described above. […] In parallel, Iowa strain oocysts were excysted. […] Assay plates were incubated at 37 °C and 5% CO2 for 3 h.

C. parvum [3] = experiment: Egress, motility, reinvasion assay (PV ratio); conditions: compound at EC90; for Egress and Reinvasion Assay: Mean PV ratios (19.5h:6h), Average: average of replicates; for Egress and Reinvasion Assay: Mean PV ratios (19.5h:6h), Replicate 1a: single replicate 1; for Egress and Reinvasion Assay: Mean PV ratios (19.5h:6h), Replicate 2a: single replicate 2; for Egress and Reinvasion Assay: Mean PV ratios (19.5h:6h), Replicate 3a: single replicate 3; for Egress and Reinvasion Assay: Mean PV ratios (19.5h:6h), Replicate 4a: single replicate 4
Procedure: For quantification of parasitophorous vacuoles over time, HCT-8 cells were grown to greater than 90% confluence in 384-well plates and infected with 11,000 oocysts after triggering excystation.

c1ccc(CNc2nc(Nc3ccccc3)nc3ccccc23)cc1 [B-1] was tested, and the “0 - 48 h V. villosa lectin (asexual): Mean % Inhibition (parasites)” value (C. parvum [1]; B-1 at log[MMV006169] (µM) 0.22) was 61.21% and 81.70%, the “0 - 48 h V. villosa lectin (asexual): Mean % Inhibition (parasites)” value (C. parvum [1]; B-1 at log[MMV006169] (µM) 0.52) was 87.47% and 92.32% and the “0 - 48 h V. villosa lectin (asexual): Mean % Inhibition (parasites)” value (C. parvum [1]; B-1 at log[MMV006169] (µM) 0.82) was 91.12% and 90.37%. For the same compound, the “0 - 48 h V. villosa lectin (asexual): Mean % Inhibition (parasites)” value (C. parvum [1]; B-1 at log[MMV006169] (µM) 1.00) was 88.49% and 90.28%, the “0 - 48 h V. villosa lectin (asexual): Mean % Inhibition (parasites)” value (C. parvum [1]; B-1 at log[MMV006169] (µM) -0.18) was 5.34% and 39.84% and the “0 - 48 h V. villosa lectin (asexual): Mean % Inhibition (parasites)” value (C. parvum [1]; B-1 at log[MMV006169] (µM) -0.65) was -11.45% and 6.00%. The “0 - 48 h V. villosa lectin (asexual): Mean % Inhibition (parasites)” value (C. parvum [1]; B-1 at log[MMV006169] (µM) -1.13) was -7.55% and -4.41%, the “0 - 48 h V. villosa lectin (asexual): Mean % Inhibition (parasites)” value (C. parvum [1]; B-1 at log[MMV006169] (µM) -1.61) was -3.87% and -15.36% and the “0 - 48 h V. villosa lectin (asexual): Mean % Inhibition (parasites)” value (C. parvum [1]; B-1 at log[MMV006169] (µM) -2.08) was -14.75% and -13.18%. For the same compound, the EC50 (C. parvum [1]; read-out: 0 − 48 h V. villosa lectin (asexual): EC50, asexual growth assay, first 48 h, range in brackets) was 1000 nM, the EC90 (C. parvum [1]) was 2270 nM and the “Invasion Assay: Mean % Inhibition (parasites), Average” value (C. parvum [2]) was 56.43%. The “Invasion Assay: Mean % Inhibition (parasites), Replicate 1a” value (C. parvum [2]) was 55%, the “Invasion Assay: Mean % Inhibition (parasites), Replicate 2a” value (C. parvum [2]) was 63% and the “Invasion Assay: Mean % Inhibition (parasites), Replicate 3a” value (C. parvum [2]) was 42%. For the same compound, the “Invasion Assay: Mean % Inhibition (parasites), Replicate 4a” value (C. parvum [2]; single biological replicate 4) was 66%, the Sporozoite invasion (C. parvum [2]) was “yes” and the “Egress and Reinvasion Assay: Mean PV ratios (19.5h:6h), Average” value (C. parvum [3]) was 1.58. The “Egress and Reinvasion Assay: Mean PV ratios (19.5h:6h), Replicate 1a” value (C. parvum [3]) was 1.28, the “Egress and Reinvasion Assay: Mean PV ratios (19.5h:6h), Replicate 2a” value (C. parvum [3]) was 1.59 and the “Egress and Reinvasion Assay: Mean PV ratios (19.5h:6h), Replicate 3a” value (C. parvum [3]) was 1.80. The “Egress and Reinvasion Assay: Mean PV ratios (19.5h:6h), Replicate 4a” value (C. parvum [3]) was 1.65.
For c1ccc(CNc2nc(NC3CCCC3)nc3ccccc23)cc1 [B-5], the EC90 (C. parvum [1]) was 7220 nM, the “Invasion Assay: Mean % Inhibition (parasites), Average” value (C. parvum [2]) was 82.99% and the “Invasion Assay: Mean % Inhibition (parasites), Replicate 1a” value (C. parvum [2]) was 81%. The “Invasion Assay: Mean % Inhibition (parasites), Replicate 2a” value (C. parvum [2]) was 85%, the Sporozoite invasion (C. parvum [2]) was “yes” and the “Egress and Reinvasion Assay: Mean PV ratios (19.5h:6h), Average” value (C. parvum [3]) was 1.49. The “Egress and Reinvasion Assay: Mean PV ratios (19.5h:6h), Replicate 1a” value (C. parvum [3]) was 1.74 and the “Egress and Reinvasion Assay: Mean PV ratios (19.5h:6h), Replicate 2a” value (C. parvum [3]) was 1.24.
With COc1ccc(Nc2nc(NCc3ccccc3Cl)c3ccccc3n2)cc1Cl [B-13] the EC90 (C. parvum [1]) was 1390 nM, the “Invasion Assay: Mean % Inhibition (parasites), Average” value (C. parvum [2]) was 82.51% and the “Invasion Assay: Mean % Inhibition (parasites), Replicate 1a” value (C. parvum [2]) was 92%. The “Invasion Assay: Mean % Inhibition (parasites), Replicate 2a” value (C. parvum [2]) was 73%, the Sporozoite invasion (C. parvum [2]) was “yes” and the “Egress and Reinvasion Assay: Mean PV ratios (19.5h:6h), Average” value (C. parvum [3]) was 1.42. The “Egress and Reinvasion Assay: Mean PV ratios (19.5h:6h), Replicate 1a” value (C. parvum [3]) was 1.37 and the “Egress and Reinvasion Assay: Mean PV ratios (19.5h:6h), Replicate 2a” value (C. parvum [3]) was 1.48.
For c1ccc(CNc2nc(NCc3ccccc3)c3ccccc3n2)cc1 [B-23], the EC90 (C. parvum [1]) was 10800 nM, the “Invasion Assay: Mean % Inhibition (parasites), Average” value (C. parvum [2]) was 83.80% and the “Invasion Assay: Mean % Inhibition (parasites), Replicate 1a” value (C. parvum [2]) was 84%. The “Invasion Assay: Mean % Inhibition (parasites), Replicate 2a” value (C. parvum [2]) was 83%, the Sporozoite invasion (C. parvum [2]) was “yes” and the “Egress and Reinvasion Assay: Mean PV ratios (19.5h:6h), Average” value (C. parvum [3]) was 1.55. For the same compound, the “Egress and Reinvasion Assay: Mean PV ratios (19.5h:6h), Replicate 1a” value (C. parvum [3]) was 1.73 and the “Egress and Reinvasion Assay: Mean PV ratios (19.5h:6h), Replicate 2a” value (C. parvum [3]) was 1.36.
CCOc1ccc2cc(-c3nn(CC4CCN(C)CC4)c4ncnc(N)c34)ccc2n1 [BKI-1369] was tested, and the EC90 (C. parvum [1]) was 17600 nM, the “Invasion Assay: Mean % Inhibition (parasites), Average” value (C. parvum [2]) was -7.94% and the “Invasion Assay: Mean % Inhibition (parasites), Replicate 1a” value (C. parvum [2]) was -5%. The “Invasion Assay: Mean % Inhibition (parasites), Replicate 2a” value (C. parvum [2]) was -11%, the “Egress and Reinvasion Assay: Mean PV ratios (19.5h:6h), Average” value (C. parvum [3]) was 1.41 and the “Egress and Reinvasion Assay: Mean PV ratios (19.5h:6h), Replicate 1a” value (C. parvum [3]) was 1.20. For the same compound, the “Egress and Reinvasion Assay: Mean PV ratios (19.5h:6h), Replicate 2a” value (C. parvum [3]) was 1.62.
For COc1ccc(NC(=O)N2CCCCN3C(CN(C)C)C(c4ccc(C#Cc5ccccc5)cc4)C3C2)cc1 (stereo not shown) [BRD7929], the EC90 (C. parvum [1]) was 150 nM, the “Invasion Assay: Mean % Inhibition (parasites), Average” value (C. parvum [2]) was 0.40% and the “Invasion Assay: Mean % Inhibition (parasites), Replicate 1a” value (C. parvum [2]) was -20%. For the same compound, the “Invasion Assay: Mean % Inhibition (parasites), Replicate 2a” value (C. parvum [2]) was 20%, the “Invasion Assay: Mean % Inhibition (parasites), Replicate 3a” value (C. parvum [2]) was 1.85% and the “Egress and Reinvasion Assay: Mean PV ratios (19.5h:6h), Average” value (C. parvum [3]) was 0.72. The “Egress and Reinvasion Assay: Mean PV ratios (19.5h:6h), Replicate 1a” value (C. parvum [3]) was 0.46, the “Egress and Reinvasion Assay: Mean PV ratios (19.5h:6h), Replicate 2a” value (C. parvum [3]) was 0.99 and the “Egress and Reinvasion Assay: Mean PV ratios (19.5h:6h), Replicate 3a” value (C. parvum [3]) was 0.98. For the same compound, the “Egress and Reinvasion Assay: Mean PV ratios (19.5h:6h), Replicate 4a” value (C. parvum [3]) was 0.41 and the “Egress and Reinvasion Assay: Mean PV ratios (19.5h:6h), Replicate 5a” value (C. parvum [3]; single replicate 5) was 0.78.
